Experimental data published in patent US6525001B1, “Substituted pyrimidine and pyridine herbicides” (Mid-American Commercialization Corporation, priority 1997, dated 2003).

Legend:
Assay type in all cases: in vivo
[1] = system: bermudagrass (Cynodon dactylon); assay: Test E pre-/postemergence/post directed; set-up: key: 0 is no effect; 100 is complete control; details: PREEMERGENCE, Rate 250 g/ha
Text: (§1) Seeds, tubers, or plant parts of alexandergrass (Brachiaria plantaginea), annual bluegrass (Poa annua), arrowleaf sida (Sida rhombifolia), barnyardgrass (Echinochloa crus-galli), bermudagrass (Cynodon dactylon), citrus (Citrus sinensis), common chickweed (Stellaria media), common purslane (Portulaca oleracea), common ragweed (Ambrosia elatior), common groundsel (Senecio vulgaris), dallisgrass (Paspalum dilatatum), goosegrass (Eleusine indica), green foxtail (Setaria viridis), guineagrass (Panicum maximum), itchgrass (Rottboellia exaltata), johnson grass (Sorghum halepense), kochia (Kochia scoparia), large crabgrass (Digitaria sanguinalis), leafy spurge (Euphorbia esula), pitted morningglory (Ipomoea lacunosa), purple nutsedge (Cyperus rotundus), quackgrass (Agropyron repens), Russian thistle (Salsola kali), sandbur (Cenchrus echinatus), sourgrass (Trichachne insularis), Spanishneedles (Bidens bipinnata), sugarcane (Saccharum officinarum), surinam grass (Brachiaria decumbens) and tall mallow (Malva sylvestris) were planted into greenhouse pots of flats containing greenhouse planting medium. Plant species were grown grown in separate pots or individual compartments. Preemergence applications were made within one day of planting the seed or plant part. Postemergence applications were applied when the plants were in the two to four leaf stage (three to twenty cm).
(§2) Test chemicals were formulated in a non-phytotoxic solvent mixture which included a surfactant and applied preemergence to the soil surface, postemergence to the plants or as a post directed spray to plants and soil at the base of the target species. Untreated control plants and treated plants were placed in the greenhouse and visually evaluated for injury 13 to 21 days after herbicide application. Plant response ratings, summarized in Table E, are based on a 0 to 100 scale where 0 is no injury and 100 is complete control. A dash (−) response means no test result.

[2] = system: common groundsel (Senecio vulgaris); assay: Test E pre-/postemergence/post directed; set-up: key: 0 is no effect; 100 is complete control; details: PREEMERGENCE
Text: as §1, §2

[3] = system: common purslane (Portulaca oleracea); assay: Test E pre-/postemergence/post directed; set-up: key: 0 is no effect; 100 is complete control
Text: as §1, §2

[4] = system: common ragweed (Ambrosia elatior); assay: Test E pre-/postemergence/post directed; set-up: key: 0 is no effect; 100 is complete control; details: PREEMERGENCE, Rate 250 g/ha
Text: as §1, §2

[5] = system: dallisgrass (Paspalum dilatatum); assay: Test E pre-/postemergence/post directed; set-up: key: 0 is no effect; 100 is complete control
Text: as §1, §2

[6] = system: goosegrass (Eleusine indica); assay: Test E pre-/postemergence/post directed; set-up: key: 0 is no effect; 100 is complete control
Text: as §1, §2

[7] = system: guineagrass (Panicum maximum); assay: Test E pre-/postemergence/post directed; set-up: key: 0 is no effect; 100 is complete control
Text: as §1, §2

[8] = system: sourgrass (Trichachne insularis); assay: Test E pre-/postemergence/post directed; set-up: key: 0 is no effect; 100 is complete control
Text: as §1, §2

[9] = system: tall mallow (Malva sylvestris); assay: Test E pre-/postemergence/post directed; set-up: key: 0 is no effect; 100 is complete control; details: PREEMERGENCE
Text: as §1, §2

[10] = system: barnyardgrass (Echinochloa crus-galli); assay: Test A pre-/postemergence; set-up: key: 0 is no effect; 10 is complete control; details: 0 to 10 scale
Procedure: (§3) Seeds of barnyardgrass (Echinochloa crus-galli), crabgrass (Digitaria spp.), morningglory (Ipomoea spp.), and velvetleaf (Abutilon theophrasti) were planted into a sandy loam soil and treated preemergence by soil drench with test chemicals formulated in a non-phytotoxic solvent mixture which includes a surfactant. At the same time, these crop and weed species were also treated postemergence sprayed to runoff, with test chemicals formulated in the same manner. Plants ranged in height from two to eighteen cm and were in the one to two leaf stage for the postemergence treatment. Treated plants and untreated controls were maintained in a greenhouse for approximately eleven days, after which all treated plants were compared to untreated controls and visually evaluated for injury. Plant response ratings, summarized in Table A, are based on a 0 to 10 scale where 0 is no effect and 10 is complete control. A dash (−) response means no test results.

[11] = system: crabgrass (Digitaria spp.); assay: Test A pre-/postemergence; set-up: key: 0 is no effect; 10 is complete control; details: 0 to 10 scale
Procedure: as §3

[12] = system: morningglory (Ipomoea spp.); assay: Test A pre-/postemergence; set-up: key: 0 is no effect; 10 is complete control; details: 0 to 10 scale
Procedure: as §3

[13] = system: velvetleaf (Abutilon theophrasti); assay: Test A pre-/postemergence; set-up: key: 0 is no effect; 10 is complete control; details: 0 to 10 scale
Procedure: as §3

[14] = system: ladysthumb smartweed (Polygonum persicaria); assay: Test C; set-up: key: 0 was no effect; 100 was complete control; details: PREEMERGENCE
[15] = PRE SOIL DRENCH, Rate 2000 g/ha
[16] = postemergence SPRAYED TO RUNOFF, Rate 1000 g/ha

## Cc1cnc(-n2cnc(C(F)(F)F)c2)nc1Cc1cccc(C(F)(F)F)c1 [Compound 44]
[1]
  Plant response rating, Bermudagrass: 100
[2]; Rate 64 g/ha
  Plant response rating, Com. groundsel: 100
[2]; Rate 125 g/ha
  Plant response rating, Com. groundsel: 100
[2]; Rate 250 g/ha
  Plant response rating, Com. groundsel: 100
[3]; POSTEMERGENCE, Rate 125 g/ha
  Plant response rating, Com. purslane: 70
[3]; POSTEMERGENCE, Rate 250 g/ha
  Plant response rating, Com. purslane: 70
[3]; PREEMERGENCE, Rate 32 g/ha
  Plant response rating, Com. purslane: 80
[3]; PREEMERGENCE, Rate 64 g/ha
  Plant response rating, Com. purslane: 100
[3]; PREEMERGENCE, Rate 125 g/ha
  Plant response rating, Com. purslane: 100
[3]; PREEMERGENCE, Rate 250 g/ha
  Plant response rating, Com. purslane: 100
[4]
  Plant response rating, Com. ragweed: 100
[5]; POSTEMERGENCE, Rate 125 g/ha
  Plant response rating, Dallisgrass: 10
[5]; POSTEMERGENCE, Rate 250 g/ha
  Plant response rating, Dallisgrass: 10
[5]; PREEMERGENCE, Rate 32 g/ha
  Plant response rating, Dallisgrass: 65
[5]; PREEMERGENCE, Rate 64 g/ha
  Plant response rating, Dallisgrass: 80
[5]; PREEMERGENCE, Rate 125 g/ha
  Plant response rating, Dallisgrass: 90
[5]; PREEMERGENCE, Rate 250 g/ha
  Plant response rating, Dallisgrass: 100
[6]; POSTEMERGENCE, Rate 125 g/ha
  Plant response rating, Goosegrass: 10
[6]; POSTEMERGENCE, Rate 250 g/ha
  Plant response rating, Goosegrass: 20
[6]; PREEMERGENCE, Rate 32 g/ha
  Plant response rating, Goosegrass: 98
[6]; PREEMERGENCE, Rate 64 g/ha
  Plant response rating, Goosegrass: 98
[6]; PREEMERGENCE, Rate 125 g/ha
  Plant response rating, Goosegrass: 98
[6]; PREEMERGENCE, Rate 250 g/ha
  Plant response rating, Goosegrass: 100
[7]; POSTEMERGENCE, Rate 125 g/ha
  Plant response rating, Guineagrass: 85
[7]; POSTEMERGENCE, Rate 250 g/ha
  Plant response rating, Guineagrass: 85
[7]; PREEMERGENCE, Rate 32 g/ha
  Plant response rating, Guineagrass: 20
[7]; PREEMERGENCE, Rate 64 g/ha
  Plant response rating, Guineagrass: 80
[7]; PREEMERGENCE, Rate 125 g/ha
  Plant response rating, Guineagrass: 100
[7]; PREEMERGENCE, Rate 250 g/ha
  Plant response rating, Guineagrass: 100
[8]; POSTEMERGENCE, Rate 125 g/ha
  Plant response rating, Sourgrass: 10
[8]; POSTEMERGENCE, Rate 250 g/ha
  Plant response rating, Sourgrass: 20
[8]; PREEMERGENCE, Rate 32 g/ha
  Plant response rating, Sourgrass: 80
[8]; PREEMERGENCE, Rate 64 g/ha
  Plant response rating, Sourgrass: 100
[8]; PREEMERGENCE, Rate 125 g/ha
  Plant response rating, Sourgrass: 100
[8]; PREEMERGENCE, Rate 250 g/ha
  Plant response rating, Sourgrass: 100
[9]; Rate 32 g/ha
  Plant response rating, Tall Mallow: 80
[9]; Rate 64 g/ha
  Plant response rating, Tall Mallow: 80
[9]; Rate 125 g/ha
  Plant response rating, Tall Mallow: 98
[9]; Rate 250 g/ha
  Plant response rating, Tall Mallow: 98

## Cc1cnc(-n2ccc(C(F)(F)F)n2)nc1C(=O)c1cccc(C(F)(F)F)c1 [Compound 59]
[10]; [15]
  Plant response rating, Barnyardgrass: 10
[10]; [16]
  Plant response rating, Barnyardgrass: 9
[11]; [15]
  Plant response rating, Crabgrass: 10
[11]; [16]
  Plant response rating, Crabgrass: 9
[12]; [15]
  Plant response rating, Morningglory: 9
[12]; [16]
  Plant response rating, Morningglory: 8
[13]; [15]
  Plant response rating, Velvetleaf: 10
[13]; [16]
  Plant response rating, Velvetleaf: 9

## Cc1cnc(-n2ccc(C(F)(F)F)n2)nc1C(=O)c1ccc(C(F)(F)F)cc1 [Compound 65]
[10]; [15]
  Plant response rating, Barnyardgrass: 5
[10]; [16]
  Plant response rating, Barnyardgrass: 4
[11]; [15]
  Plant response rating, Crabgrass: 8
[11]; [16]
  Plant response rating, Crabgrass: 5
[12]; [15]
  Plant response rating, Morningglory: 4
[12]; [16]
  Plant response rating, Morningglory: 10
[13]; [15]
  Plant response rating, Velvetleaf: 4
[13]; [16]
  Plant response rating, Velvetleaf: 5

## Cc1cnc(-n2ccc(C(F)(F)F)n2)nc1C(=O)c1cccc(OC(F)(F)F)c1 [Compound 66]
[14]; Rate 35 g/ha
  Plant response rating, Ladysthumb: 0
[14]; Rate 140 g/ha
  Plant response rating, Ladysthumb: 70

## Cc1cnc(-c2ccc(C(F)(F)F)cc2)nc1C(=O)c1cccc(C(F)(F)F)c1 [Compound 73]
[10]; [15]
  Plant response rating, Barnyardgrass: 9
[10]; [16]
  Plant response rating, Barnyardgrass: 8
[11]; [15]
  Plant response rating, Crabgrass: 10
[11]; [16]
  Plant response rating, Crabgrass: 9
[12]; [15]
  Plant response rating, Morningglory: 9
[12]; [16]
  Plant response rating, Morningglory: 9
[13]; [15]
  Plant response rating, Velvetleaf: 9
[13]; [16]
  Plant response rating, Velvetleaf: 9

## Cc1cnc(-c2ccc(C(F)(F)F)cc2)nc1C(=O)c1ccc(C(F)(F)F)cc1 [Compound 74]
[10]; [15]
  Plant response rating, Barnyardgrass: 1
[10]; [16]
  Plant response rating, Barnyardgrass: 5
[11]; [15]
  Plant response rating, Crabgrass: 7
[11]; [16]
  Plant response rating, Crabgrass: 8
[12]; [15]
  Plant response rating, Morningglory: 1
[12]; [16]
  Plant response rating, Morningglory: 10
[13]; [15]
  Plant response rating, Velvetleaf: 4
[13]; [16]
  Plant response rating, Velvetleaf: 5
